Tests used:
HEK293 cells [1] = assay: Preliminary screening as DNA vectors, GFP transfection of HEK293 cells; format: cell-based; settings: HEK293 cells; lipid/DOPE liposome with 75 ng plasmid DNA (psin-EGFP-IRES-Puro); number of cells expressing GFP divided by total number of nuclei (Hoechst)
In short: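 HEK293 cells in DMEM/10% FBS transfected with 75 ng EGFP plasmid per well complexed with amino lipid/DOPE liposomes in pH 5.6 sodium acetate. Hoechst nuclear stain added 20-24 h post-transfection, then cells cultured another 20-24 h. Confocal imaging gives GFP-positive cells as % of total nuclei.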

HEK293 cells [2] = assay: Preliminary screening as mRNA vectors, EGFP mRNA transfection of HEK293 cells; format: cell-based; settings: HEK293 cells, 96-well plates, EGFP mRNA 50 ng per well; percentage of GFP fluorescent cells relative to total number of cells (Hoechst)
In short: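 HEK293 cells in DMEM plus 10% FBS transfected in 96-well format with 50 ng EGFP mRNA per well; Lipofectamine2000 served as positive control. Read-out is the percentage of GFP-fluorescent cells among total cells, counted by Hoechst nuclear stain.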

| Compound | Absolute DNA transfection efficiency in HEK293 cells (HEK293 cells [1]) [%] | Absolute mRNA transfection efficiency in HEK293 cells (HEK293 cells [2]) [%] |
| --- | --- | --- |
| CCCCCCCCCCCCCCCSc1nc(NCCN2CCN(C)CC2)nc(SCCCCCCCCCCC)n1 [Compound S11S15D5] | 4.8 | 17.4 |
| CCCCCCCCCCCCCNc1nc(NCCCCCCCCCCCC)nc(NCC2CCN(C)CC2)n1 [Compound N12N13D10] | 0.2 | 0.2 |
| CCCCCCCCCNc1nc(NCCCCCCC)nc(NCCN2CCOCC2)n1 [Compound N7N9D2] | 0.0 | 0.0 |
| CCCCCCCCCCCCCCCSc1nc(NCCN(CC)CC)nc(SCCCCCCCCCCC)n1 [Compound S11S15D7] | 5.3 | 0.7 |
| CCCCCCCCCCCSc1nc(NCCCN(C)C)nc(SCCCCCCCCC)n1 [Compound S9S11D6] | 41.9 | 85.1 |
| CCCCCCCCCCCCN(CCCCCCCCCCCC)c1nc(NCCCN2CCOCC2)nc(N(CCCCCCCCCCCC)CCCCCCCCCCCC)n1 [2N12^2N12D8] | 0.1 | 0.0 |
| CCCCCCCCCCCCCCCCCCNc1nc(NCCCCCC)nc(NCCCN(C)C)n1 [Compound N6N18D6] | 1.8 | 0.1 |
| CCCCCCCCCCCCCCSc1nc(NCCCN2CCOCC2)nc(SCCCCCCCCCCCC)n1 [Compound S12S14D8] | 3.7 | 1.3 |
| CCCCCCCCCCCCCCCCCCSc1nc(NCCCN(C)C)nc(SCCCCCCCCCCCCCCC)n1 [Compound S15S18D6] | 1.0 | 0.0 |
| CCCCCCCCCCCCNc1nc(NCCCCCC)nc(NCC2CCN(C)CC2)n1 [Compound N6N12D10] | 0.2 | 0.0 |
| CCCCCCCCCCSc1nc(NCCN2CCOCC2)nc(SCCCCCCCCCC)n1 [Compound S10S10D2] | 4.0 | 0.4 |
| CCCCCCCCCCCCCNc1nc(NCCCCCCCCCCC)nc(NCCN2CCCCC2)n1 [Compound N11N13D4] | 0.0 | 0.9 |
| CCCCCCCCCCCCN(CCCCCCCCCCCC)c1nc(NCC2CCN(C)CC2)nc(N(CCCCCCCCCCCC)CCCCCCCCCCCC)n1 [2N12^2N12D10] | 1.8 | 3.3 |
| CCCCCCCCCCCCNc1nc(NCCCCCC)nc(NCCN2CCOCC2)n1 [Compound N6N12D2] | 0.0 | 0.0 |
| CCCCCCCCCCCCCCCNc1nc(NCCCN2CCOCC2)nc(N(CCCCCCCCCCCC)CCCCCCCCCCCC)n1 [N15^2N12D8] | 0.9 | 0.9 |
| CCCCCCCCCCCNc1nc(NCCCCCCC)nc(NCCN2CCOCC2)n1 [Compound N7N11D2] | 0.1 | 0.0 |
| CCCCCCCCCCCCNc1nc(NCCCCCCCC)nc(NCCN2CCOCC2)n1 [Compound N8N12D2] | 0.0 | 0.0 |
| CCCCCCCCCCCCCCCCCCSc1nc(NCC2CCN(C)CC2)nc(SCCCCCCCCC)n1 [Compound S9S18D10] | 7.0 | 43.6 |
| CCCCCCCCCCCCCCCNc1nc(NCCN2CCCCC2)nc(N(CCCCCCCCCCCC)CCCCCCCCCCCC)n1 [N15^2N12D4] | 2.1 | 2.9 |
| CCCCCCCCCNc1nc(NCCCCCCC)nc(NCCCN2CCN(C)CC2)n1 [Compound N7N9D9] | 0.7 | 0.0 |
| CCCCCCCCCSc1nc(NCCCN2CCN(C)CC2)nc(SCCCCCCCCC)n1 [Compound S9S9D9] | 19.3 | 19.3 |
| CCCCCCCCCCCCCCCCSc1nc(NCCN(CC)CC)nc(SCCCCCCCCCCCCCCCC)n1 [Compound S16S16D7] | 0.5 | 0.0 |
| CCCCCCCCCCCCNc1nc(NCCCN2CCN(C)CC2)nc(N(CCCCCCCCCCCC)CCCCCCCCCCCC)n1 [N12^2N12D9] | 3.0 | 0.7 |
| CCCCCCCCCCCCCCCCCCSc1nc(NCCN2CCCCC2)nc(SCCCCCCCCCCCCCCC)n1 [Compound S15S18D4] | 0.3 | 0.0 |

| Compound | Absolute DNA transfection efficiency in HEK293 cells (HEK293 cells [1]) [%] | Absolute mRNA transfection efficiency in HEK293 cells (HEK293 cells [2]) [%] |
| --- | --- | --- |
| CCCCCCCCCCCCCCCCSc1nc(NCCN2CCCCC2)nc(SCCCCCCCC)n1 [Compound S8S16D4] | 10.2 | 2.1 |
| CCCCCCCCCCCCCCCCNc1nc(NCCCCCCC)nc(NCCN(CC)CC)n1 [Compound N7N16D7] | 0.0 | 0.4 |
| CCCCCCCCCCCCCNc1nc(NCCCCCC)nc(NCCN2CCCC2)n1 [Compound N6N13D3] | 0.5 | 1.0 |
| CCCCCCCCCCCCCCCCCCNc1nc(NCCCCCC)nc(NCCN2CCN(C)CC2)n1 [Compound N6N18D5] | 0.6 | 0.0 |
| CCCCCCCCCCCCNc1nc(NCCCCCCC)nc(NCCN2CCN(C)CC2)n1 [Compound N7N12D5] | 0.3 | 0.0 |
| CCCCCCCCCCCCCCCCSc1nc(NCC2CCN(C)CC2)nc(SCCCCCCCCCCCCCC)n1 [Compound S14S16D10] | 2.7 | 0.8 |
| CCCCCCCCCCCCCCCCNc1nc(NCCCCCCCCC)nc(NCCN(C)C)n1 [Compound N9N16D1] | 2.1 | 1.5 |
| CCCCCCCCCCCCCCCSc1nc(NCC2CCN(C)CC2)nc(SCCCCCCCC)n1 [Compound S8S15D10] | 32.1 | 64.0 |
| CCCCCCCCCCCCCCCCCCSc1nc(NCCCN2CCOCC2)nc(SCCCCCCCCCCCCCCC)n1 [Compound S15S18D8] | 0.0 | 0.5 |
| CCCCCCCCCCCCCCCCCCNc1nc(NCCCCCCCCCCCCCCCCCC)nc(NCCN(CC)CC)n1 [Compound N18N18D7] | 0.3 | 0.0 |
| CCCCCCCCCCCCCCCCNc1nc(NCCCCCCCCCCCCC)nc(NCCN2CCCCC2)n1 [Compound N13N16D4] | 1.0 | 4.0 |
| CCCCCCCCCCCNc1nc(NCCCCCCCC)nc(NCCN2CCN(C)CC2)n1 [Compound N8N11D5] | 0.2 | 0.4 |
| CCCCCCCCCCCCCCCCSc1nc(NCCN2CCCCC2)nc(SCCCCCCCCCCCCCCCC)n1 [Compound S16S16D4] | 1.2 | 2.2 |
| CCCCCCCCCCCCCCCNc1nc(NCCCCCC)nc(NCCN2CCCC2)n1 [Compound N6N15D3] | 0.6 | 0.3 |
| CCCCCCCCCNc1nc(NCCCCCCCC)nc(NCCN(C)C)n1 [Compound N8N9D1] | 0.0 | 0.8 |
| CCCCCCCCCCCCCCCCCCSc1nc(NCCN(CC)CC)nc(SCCCCCCCCCCC)n1 [Compound S11S18D7] | 3.6 | 1.1 |
| CCCCCCCCCCSc1nc(NCCN2CCCC2)nc(SCCCCCCCCCC)n1 [Compound S10S10D3] | 13.6 | 5.0 |
| CCCCCCCCCCCCCCCCCCNc1nc(NCCCCCC)nc(NCCN2CCCC2)n1 [Compound N6N18D3] | 3.4 | 3.9 |
| CCCCCCCCCCCCN(CCCCCCCCCCCC)c1nc(NCCCCCCCC)nc(NCCN2CCN(C)CC2)n1 [N8^2N12D5] | 0.0 | 0.4 |
| CCCCCCCCCCCCCCCNc1nc(NCCCCCCC)nc(NCCN2CCCCC2)n1 [Compound N7N15D4] | 0.2 | 0.0 |
| CCCCCCCCCCCCCCCSc1nc(NCCCN(C)C)nc(SCCCCCCCCCC)n1 [Compound S10S15D6] | 32.8 | 24.6 |
| CCCCCCCCCCCSc1nc(NCCN2CCCC2)nc(SCCCCCCCCCC)n1 [Compound S10S11D3] | 6.8 | 4.4 |
| CCCCCCCCCCCCCCCNc1nc(NCCCCCCC)nc(NCCN(CC)CC)n1 [Compound N7N15D7] | 0.0 | 0.0 |

— patent publication US20230123334A1, “AMINO LIPID COMPOUND, PREPARATION METHOD THEREFOR, AND APPLICATION THEREOF” (SHENZHEN SHENXIN BIOTECHNOLOGY CO., LTD., priority 2020, published 2023)
